This passage reports IC50 and melting point results from US7767671B2, “3-Quinolinecarbonitrile protein kinase inhibitors” (Wyeth, priority 2004, dated 2010).

The subject of data set [1] is Rat2 fibroblasts transformed with v-Src/Hu c-Src fusion gene. In words: Anchorage independent Src-transformed fibroblast proliferation. The data set is classed as cell-based. Conditions: Rattus norvegicus, 120 h, suspension growth, MTS on Day 5, read-out: Src TF prolif IC50. Here is the method:
Anchorage Independent Src-transformed Fibroblast Proliferation Test Procedure: Rat2 fibroblasts stably transformed with a plasmid containing a CMV promotor controlled v-Src/Hu c-Src fusion gene in which the catalytic domain of human c-Src is inserted in place of the v-Src catalytic domain in the v-Src gene are used for the measurement of src dependent suspension growth. Ultra-low cluster plates (Costar #3474) are seeded with 10,000 cells per well on Day 1.

Another data set deals with T1, p60c-src (Homo sapiens, UniProt P12931).
T1 construct: purchased Upstate Biotechnologies
In words: Src kinase test procedure (ELISA). Conditions: cdc2 substrate peptide, (a) = average of two runs. The data set is classed as biochemical. As for the experimental part: Src Kinase Test Procedure
Inhibitors of p60^c-src (partially purified preparation purchased from Upstate Biotechnologies) tyrosine kinase activity are analyzed in an Elisa format. The Boehringer Mannheim Tyrosine Kinase Assay Kit (Catalog number 1-534505) with a cdc2 substrate peptide containing Tyr15 is used for the assay. HRP-conjugated anti-phosphotyrosine is used to detect phosphorylated peptide via a color reaction. Conditions recommended by the manufacturer are employed.
Reaction conditions: Five microliter aliquots of each compound prepared fresh at the time of the assay are added as a solution in 10 mM HEPES pH 7.5, 10% DMSO to the reaction well. Thirty-five microliters of reaction mix containing Src, buffer and peptide/bovine serum albumin mix are added to the compound wells and incubated at 30° C. for 10 minutes (reaction buffer: 50 mM Tris HCl pH 7.5, 10 mM MgCl2, 0.1 mM EGTA, 0.5 mM Na3VO4). The reaction is started by addition of 10 microliters of ATP, incubated at 30° C. for 1 hour, and stopped by addition of 20 microliters of 0.5M EDTA. The reaction mixture with the phosphorylated peptide is then transferred to a streptavidin-coated microtiter plate (provided in the kit) and allowed to bind for 20 minutes. Unbound peptide and reaction mixture is decanted and the plate is washed with PBS six times. Horseradish peroxidase-conjugated phosphotyrosine antibody supplied in the kit is incubated with the plate for one hour, then decanted. The plate is again ished with PBS six times. Substrate (provided in the kit) is added and absorbance at 405 nm is measured.
Activity is determined as % inhibition as calculated by the formula: (1−Abs/Abs(max))×100=% inhibition. Where multiple concentrations of the test agent are used, an IC50 (concentration which gives 50% inhibition) could be determined.
In general terms: In an ELISA, binding on a coated surface is turned into a signal by an enzyme label.

The target in data set [2] is T2, Raf and/or Mek kinase (human c-Raf, GST-MEK1) (Homo sapiens, UniProt P04049+Q02750).
T2 construct: Sf9 insect cell lysate containing full length 6his-tagged recombinant human c-Raf; 6His; host or cells: Sf9 insect cells (c-Raf, used as lysate); E. coli (MEK1-GST, GST-MAPK)
The data set can be described thus: Raf/Mek kinase cascade assay. In kind it is biochemical. Conditions: c-Raf dependent activation of GST-MEK and GST-MAPK, phospho-MAPK ELISA; (a)/(b)/(c) = average of two/three/four runs. Here is the method:
Raf/Mek Kinase Cascade Assay Procedure
(Specific Activity: ˜200 U/ml). Human Non-active Mek-1-GST and human GST-MAP kinase (recombinant proteins produced in E. coli).
Stock Solutions Raf/Mek Cascade Assay:
• 1. Assay Dilution Buffer (ADB): 20 mM MOPS, pH 7.2, 25 mM β-glycerol phosphate, 5 mM EGTA, 1 mM sodium orthovanadate, 1 mM dithiothreitol; • 2. Magnesium/ATP Cocktail: 500 μM cold ATP and 75 mM magnesium chloride in ADB; • 3. Active Kinase: Human Active c-Raf: Use at 0.4 U per assay point; • 4. Non-active GST-MEK1: Use at 0.1 μg per assay point; and • 5. Non-active GST-p42 MAP Kinase: Use at 1.0 μg per assay point. Stock Solutions ELISA: • 1. TBST-Tris (50 mM, pH 7.5), NaCl (150 mM), Tween-20 (0.05%); • 2. Superblock (Pierce); • 3. Anti-GST Ab (Pharmacia); • 4. Anti-Phospho MAPK (Sigma); and • 5. Anti-Mouse Ab/Europium conjugate (Wallac). Assay Procedure: First Stage: c-Raf Dependent Activation of GST-MEK and GST-MAPK • 1. Add […] of ADB per assay (i.e. per well of a 96 well plate); • 2. Add 10 ml of 0.5 mM cold ATP and 75 mM magnesium chloride in ADB; • 3. Add 2 ml of c-Raf (0.4 U/assay), in conjunction with 1.6 ml non-active MEK1 (0.4 […]/assay); • 4. Add 4 ml of non-active GST-p42 MAP Kinase (1.0 mg/assay); • 5. Incubate for 60 minutes at 30° C. in a shaking incubator; • 6. Transfer this mixture to an anti-GST Ab coated 96 well plate (Nunc Immunosorb plates coated o/n with a-GST, then blocked with Pierce Superblock); • 7. Incubate for 60 minutes at 30° C. in a shaking incubator; • 8. Wash 3× with TBST, add Anti-Phospho MAPK (Sigma) (1:3000); • 9. Incubate for 60 minutes at 30° C. in a shaking incubator; • 10. Wash 3× with TBST, add Anti-Mouse Ab/Europium conjugate (Wallac) (1:500); • 11. Incubate for 60 minutes at 30° C. in a shaking incubator; • 12. Wash 3× with TBST, Read plates in Wallac Victor model Plate Reader; and • 13. Collect data analyze in Excel for single point and IC50 determinations.
Single point assay—% inhibition at […] (% Inhibition=1−cpd·treated sample/untreated control). IC50 determinations—done on compounds from single point assays with >80% inhibition. Typically, the Raf/Mek assay is run at compound concentrations from 10 μM to 1 nM in half log dilutions. (% inhibition is determined for each compound concentration). The results obtained measure Raf and/or Mek kinase inhibition, and for representative compounds of this invention are listed in Table 1.

A further data set has as its system HT-29 cells. The data set can be described thus: HT-29 cell proliferation on plastic (MTS). In kind it is cell-based. Particulars: Homo sapiens; HT-29 cells on plastic, MTS on day five; read-out: HT-29 prolif IC50. As for the experimental part: Cell Proliferation Test Procedure for Inhibitors of Src Kinase
HT-29 cells: Compound effectiveness at inhibiting cell proliferation on plastic is performed in a 96-well format by plating 5000 cells per well in appropriate medium on day one, followed by compound addition on day 2 in serial two-fold dilutions. On day five, compound is washed away and medium containing MTS reagent (Promega) is added. Relative cell number is determined by reading the absorbance at 490 nm of a dye produced by an NAD-dependent cellular enzymatic reaction.

Each structure is given as a SMILES string.

T1 sequence (P12931 whole entry): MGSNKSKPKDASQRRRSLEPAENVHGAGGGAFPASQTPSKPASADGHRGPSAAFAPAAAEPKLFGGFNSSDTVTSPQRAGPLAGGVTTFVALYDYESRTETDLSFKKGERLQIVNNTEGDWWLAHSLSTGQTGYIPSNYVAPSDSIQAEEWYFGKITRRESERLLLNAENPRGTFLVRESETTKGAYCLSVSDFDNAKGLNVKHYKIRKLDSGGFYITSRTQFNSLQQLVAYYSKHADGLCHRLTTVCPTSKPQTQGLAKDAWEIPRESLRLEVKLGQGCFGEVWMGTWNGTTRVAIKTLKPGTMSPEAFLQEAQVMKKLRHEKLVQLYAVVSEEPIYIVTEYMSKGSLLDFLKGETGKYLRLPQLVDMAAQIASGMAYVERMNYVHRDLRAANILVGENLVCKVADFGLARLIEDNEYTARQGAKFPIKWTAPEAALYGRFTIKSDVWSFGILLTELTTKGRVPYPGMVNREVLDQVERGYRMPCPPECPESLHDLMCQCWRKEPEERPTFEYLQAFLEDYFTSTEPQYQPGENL
T2 sequence (P04049 whole entry): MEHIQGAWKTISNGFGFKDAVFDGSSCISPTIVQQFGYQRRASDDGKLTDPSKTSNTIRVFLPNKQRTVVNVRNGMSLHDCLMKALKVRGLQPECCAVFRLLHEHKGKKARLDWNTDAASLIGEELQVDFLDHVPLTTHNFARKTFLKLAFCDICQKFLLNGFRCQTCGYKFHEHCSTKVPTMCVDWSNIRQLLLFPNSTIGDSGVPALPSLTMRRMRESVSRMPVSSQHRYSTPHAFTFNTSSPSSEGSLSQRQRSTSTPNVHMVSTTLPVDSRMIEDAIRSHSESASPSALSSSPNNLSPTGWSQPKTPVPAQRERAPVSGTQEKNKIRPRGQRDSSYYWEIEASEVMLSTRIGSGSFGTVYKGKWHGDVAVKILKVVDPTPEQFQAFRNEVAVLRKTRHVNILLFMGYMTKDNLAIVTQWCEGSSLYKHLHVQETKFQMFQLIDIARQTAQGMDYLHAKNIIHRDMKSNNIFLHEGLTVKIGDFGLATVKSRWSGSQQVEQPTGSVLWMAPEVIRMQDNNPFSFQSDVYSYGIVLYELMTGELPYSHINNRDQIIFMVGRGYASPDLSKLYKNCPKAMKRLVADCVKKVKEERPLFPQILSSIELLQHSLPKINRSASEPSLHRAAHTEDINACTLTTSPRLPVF
T2 sequence (Q02750 whole entry): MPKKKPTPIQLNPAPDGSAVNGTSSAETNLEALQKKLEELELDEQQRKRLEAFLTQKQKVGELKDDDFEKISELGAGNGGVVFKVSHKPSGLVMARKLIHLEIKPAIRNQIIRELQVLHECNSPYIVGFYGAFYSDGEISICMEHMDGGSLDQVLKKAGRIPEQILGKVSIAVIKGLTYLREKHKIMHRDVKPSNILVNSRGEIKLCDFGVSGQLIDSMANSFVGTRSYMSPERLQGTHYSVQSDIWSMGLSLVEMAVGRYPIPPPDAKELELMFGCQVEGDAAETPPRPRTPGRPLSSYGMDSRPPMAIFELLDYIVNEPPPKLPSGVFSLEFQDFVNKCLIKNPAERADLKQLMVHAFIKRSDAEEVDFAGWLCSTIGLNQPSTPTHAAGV

As to `COc1cc(Nc2c(C#N)cnc3cc(N4CCC(N5CCCC5)CC4)c(OC)cc23)c(Cl)cc1Cl` [Example 31, 4-[(2,4-dichloro-5-methoxyphenyl)amino]-6-methoxy-7-(4-pyrrolidin-1-ylpiperidin-1-yl)quinoline-3-carbonitrile], the melting point (usually the temperature of the solid-liquid transition) was 225 to 227 °C. Also, in data set [1], the IC50 (usually the concentration that inhibits the measured activity by half) came to 2400 nM.

In turn, `COc1cc(Nc2c(C#N)cnc3cc(OCCCN4CCC(N5CCCC5)CC4)c(OC)cc23)c(Cl)cc1Cl` [Example 34] showed a melting point of 108 to 112 °C. On p60c-src, this molecule returned an IC50 of 0.55 nM. The IC50 in data set [1] was determined as 466 nM. Further, the midpoint of inhibition in data set [2], the IC50, lay at 250 nM. Also, the half-maximal inhibitory concentration (IC50) in the data set on HT-29 cells was 2600 nM.

`COc1cc(Nc2c(C#N)cnc3cc(OCCCN4CCC(N5CCCCC5)CC4)c(OC)cc23)c(Cl)cc1Cl` [Example 35, 7-(3-[1,4′-Bipiperidin]-1′-ylpropoxy)-4-[(2,4-dichloro-5-methoxyphenyl)amino]-6-methoxy-3-quinolinecarbonitrile] returned a melting point of 130 to 132 °C. Further, the concentration for half-maximal inhibition (IC50) on p60c-src amounted to 1 nM. Also, the IC50 in data set [1] stood at 140 nM. Besides, the IC50 in the data set on HT-29 cells amounted to 2700 nM.
